Laboratory results reported in US20050250819A1 (priority 2004, published 2005).

Test system: Type III-dependent secretion of ExoU by P. aeruginosa PA103
Assay: Tertiary assay: Type III-dependent secretion of ExoU by P. aeruginosa PA103
Format: cell-based
Settings: Pseudomonas aeruginosa, ExoU secreted into extracellular medium
Text: Tertiary assay: inhibition of Type III protein secretion of effectors from a Pseudomonas aeruginosa system. Type III protein secretion is used by P. aeruginosa to secrete several essential virulence determinants. One effector of the type III protein secretion system of P. aeruginosa PA103 is the virulence determinants ExoU.
The amount of Type III-dependent secretion of ExoU by P. aeruginosa PA103 can be determined in a cell-based assay by quantification of the 73.9 kDa ExoU protein secreted into the extracellular medium. Such quantitation can be achieved by growing strain PA103 in a deferrated medium in the presence of nitrilotriacetic acid (an inducer of Type III protein secretion in P. aeruginosa) and either in the presence or absence of putative inhibitors. After a prolonged growth period, the cells are sedimented and the supernatants concentrated by ammonium sulfate precipitation. The proteins in the resuspended pellets are separated by electrophoresis on SDS-polyacrylamide gels. After staining gels with Colloidal Blue™, the 73.9 kDa ExoU band is quantitated by scanning through an imager. The effects of inhibitors on the intensity of the ExoU band may be measured relative to that of untreated controls.

Compound | IC50
CC(C)c1ccc(/C=C(/NC(=O)c2ccc(C(F)(F)F)cc2)C(=O)N[C@@H](CSCc2ccccc2)C(=O)O)cc1 [Compound 34, (R)-3-Benzylsulfanyl-2-[3-(4-isopropylphenyl)-2-(4-trifluoromethyl-benzoylamino)acryloylamino]propionic acid] | 50 µM
O=C(N[C@@H](CSCc1ccccc1)C(=O)O)/C(=C\c1ccc2ccccc2c1)NC(=O)c1ccc(C(F)(F)F)cc1 [Compound 35, (R)-3-Benzylsulfanyl-2-[3-naphthalen-2-yl-2-(4-trifluoromethylbenzoylamino)-acryloylamino]propionic acid] | < 12.5 µM
O=C(N[C@@H](Cc1ccc(Cl)cc1)C(=O)O)/C(=C\c1cccc(C(F)(F)F)c1)NC(=O)c1ccc(-c2ccccc2)cc1 [Compound 38, (S)-2-[2-[(Biphenyl-4-carbonyl)amino]-3-(3-trifluoromethylphenyl)acryloylamino]-3-(4-chlorophenyl)propionic acid] | 17.3 µM
O=C(N[C@H](Cc1ccc(Cl)cc1)C(=O)O)/C(=C\c1cccc(C(F)(F)F)c1)NC(=O)c1ccc(-c2ccccc2)cc1 [Compound 39, (R)-2-[2-[(Biphenyl-4-carbonyl)amino]-3-(3-trifluoromethylphenyl)acryloylamino]-3-(4-chlorophenyl)propionic acid] | 17 µM
O=C(N[C@@H](CSCc1ccccc1)C(=O)O)/C(=C\c1cccc(Oc2ccc(Cl)cc2)c1)NC(=O)c1ccc(C(F)(F)F)cc1 [Compound 40, (R)-3-Benzylsulfanyl-2-[3-[3-(4-chlorophenoxy)phenyl]-2-(4-trifluoromethyl-benzoylamino)acryloylamino]propionic acid] | 13.1 µM
O=C(N[C@@H](CSCc1ccccc1)C(=O)O)/C(=C\c1ccc(Oc2ccccc2)cc1)NC(=O)c1ccc(Cl)cc1 [Compound 44, (R)-3-Benzylsulfanyl-2-[2-(4-chlorobenzoylamino)-3-(4-phenoxyphenyl)-acryloylamino]propionic acid] | 26.5 µM
O=C(N[C@@H](CSCc1ccccc1)C(=O)O)/C(=C\c1cccc(Br)c1)NC(=O)c1ccc(Oc2ccccc2)cc1 [Compound 48, (R)-3-Benzylsulfanyl-2-[3-(3-bromophenyl)-2-(4-phenoxybenzoylamino)-acryloylamino]propionic acid] | 24.8 µM
O=C(N[C@@H](COCc1ccccc1)C(=O)O)/C(=C\c1ccc(Cl)c(Cl)c1)NC(=O)c1ccc(Oc2ccccc2)cc1 [Compound 49, (S)-3-Benzyloxy-2-[3-(3,4-dichlorophenyl)-2-(4-phenoxybenzoylamino)-acryloylamino]propionic acid] | 75.7 µM
CN(C(=O)/C(=C\c1cccc(C(F)(F)F)c1)NC(=O)c1ccc(-c2ccccc2)cc1)C(COCc1ccccc1)C(=O)O (stereo not drawn) [Compound 53, 3-Benzyloxy-2-{[2-[(biphenyl-4-carbonyl)amino]-3-(3-trifluoromethylphenyl)-acryloyl]methylamino}propionic acid] | 46 µM
O=C(NC(Cc1ccc(F)cc1)C(=O)O)/C(=C\c1ccc(-c2ccccc2)cc1)NC(=O)c1ccc(C(F)(F)F)cc1 (stereo not drawn) [Compound 54, 2-[3-Biphenyl-4-yl-2-(4-trifluoromethylbenzoylamino)acryloylamino]-3-(4-fluoro-phenyl)propionic acid] | 19 µM
O=C(NC(Cc1ccc(Cl)cc1)C(=O)O)/C(=C\c1ccc(-c2ccccc2)cc1)NC(=O)c1ccc(C(F)(F)F)cc1 (stereo not drawn) [Compound 55, 2-[3-Biphenyl-4-yl-2-(4-trifluoromethylbenzoylamino)acryloylamino]-3-(4-chloro-phenyl)propionic acid] | 13 µM
O=C(N[C@H](COCc1ccccc1)C(=O)O)/C(=C\c1ccc(Cl)c(Cl)c1)NC(=O)c1ccc(-c2ccccc2)cc1 [Compound 56, (R)-3-Benzyloxy-2-[2-[(biphenyl-4-carbonyl)amino]-3-(3,4-dichlorophenyl)-acryloylamino]propionic acid] | 20.2 µM
O=C(N[C@@H](CSCc1ccccc1)C(=O)O)/C(=C\c1ccc(Oc2ccc(F)cc2)cc1)NC(=O)c1ccc(C(F)(F)F)cc1 [Compound 57, (R)-3-Benzylsulfanyl-2-[3-[4-(4-fluorophenoxy)phenyl]-2-(4-trifluoromethyl-benzoylamino)acryloylamino]propionic acid] | 35 µM
O=C(N[C@@H](CSCc1ccccc1)C(=O)O)/C(=C\c1ccc(Oc2ccc(Cl)cc2)cc1)NC(=O)c1ccc(C(F)(F)F)cc1 [Compound 58, (R)-3-Benzylsulfanyl-2-[3-[4-(4-chlorophenoxy)phenyl]-2-(4-trifluoromethyl-benzoylamino)acryloylamino]propionic acid] | 48.5 µM
O=C(O)C[C@@H](CNC(=O)/C(=C\c1cccc(C(F)(F)F)c1)NC(=O)c1ccc(-c2ccccc2)cc1)c1ccc(Cl)cc1 [Compound 62, (R)-4-[2-[(Biphenyl-4-carbonyl)amino]-3-(3-trifluoromethylphenyl)acryloylamino]-3-(4-chlorophenyl)butyric acid] | 87.8 µM
O=C(N[C@@H](CSCc1ccccc1)C(=O)O)/C(=C\c1ccc(Cl)c(Cl)c1)NC(=O)C1CCN(c2nccc(C(F)(F)F)n2)CC1 [Compound 74, (R)-3-Benzylsulfanyl-2-(3-(3,4-dichlorophenyl)-2-{[1-(4-trifluoromethylpyrimidin-2-yl)piperidine-4-carbonyl]amino}acryloylamino)propionic acid] | 33.8 µM
O=C(N[C@H](COCc1ccccc1)C(=O)O)/C(=C\c1ccc(I)cc1)NC(=O)C1CCN(c2nccc(C(F)(F)F)n2)CC1 [Compound 75, (R)-3-Benzyloxy-2-(3-(4-iodophenyl)-2-{[1-(4-trifluoromethylpyrimidin-2-yl)-piperidine-4-carbonyl]amino}acryloylamino)propionic acid] | 66.3 µM

Compound | IC50
O=C(N[C@@H](CSCc1ccccc1)C(=O)O)/C(=C\c1ccc(I)cc1)NC(=O)C1CCN(c2nccc(C(F)(F)F)n2)CC1 [Compound 76, (R)-3-Benzylsulfanyl-2-(3-(4-iodophenyl)-2-{[1-(4-trifluoromethylpyrimidin-2-yl)-piperidine-4-carbonyl]amino}acryloylamino)propionic acid] | 56.7 µM
O=C(N[C@H](COCc1ccccc1)C(=O)O)/C(=C\c1cccc(C(F)(F)F)c1)NC(=O)C1CCN(c2nccc(C(F)(F)F)n2)CC1 [Compound 77, (R)-3-Benzyloxy-2-(3-(3-trifluoromethylphenyl)-2-{[1-(4-trifluoromethylpyrimidin-2-yl)-piperidine-4-carbonyl]amino}acryloylamino)propionic acid] | 60 µM
O=C(N[C@@H](CSCc1ccccc1)C(=O)O)/C(=C\c1cccc(C(F)(F)F)c1)NC(=O)C1CCN(c2nccc(C(F)(F)F)n2)CC1 [Compound 78, (R)-3-Benzylsulfanyl-2-(3-(3-trifluoromethylphenyl)-2-{[1-(4-trifluoromethylpyrimidin-2-yl)piperidine-4-carbonyl]amino}acryloylamino)propionic acid] | 67.3 µM
O=C(N[C@H](COCc1ccccc1)C(=O)O)/C(=C\c1ccc(OC(F)(F)F)cc1)NC(=O)C1CCN(c2nccc(C(F)(F)F)n2)CC1 [Compound 83, (R)-3-Benzyloxy-2-(3-(4-trifluoromethoxyphenyl)-2-{[1-(4-trifluoromethyl-pyrimidin-2-yl)piperidine-4-carbonyl]amino}acryloylamino)propionic acid] | 84.9 µM
O=C(N[C@@H](CSCc1ccccc1)C(=O)O)/C(=C\c1ccc(OC(F)(F)F)cc1)NC(=O)C1CCN(c2nccc(C(F)(F)F)n2)CC1 [Compound 84, (R)-3-Benzylsulfanyl-2-(3-(4-trifluoromethoxyphenyl)-2-{[1-(4-trifluoromethyl-pyrimidin-2-yl)piperidine-4-carbonyl]amino}acryloylamino)propionic acid] | 57.8 µM
O=C(NC(Cc1ccc(Cl)cc1)C(=O)O)/C(=C\c1cccc(C(F)(F)F)c1)NC(=O)c1ccc(-c2ccccc2)cc1 (stereo not drawn) [Compound 97] | 13 µM
O=C(NC(CCSCc1ccccc1)C(=O)O)/C(=C\c1cccc(C(F)(F)F)c1)NC(=O)c1ccc(-c2ccccc2)cc1 (stereo not drawn) [Compound 98] | 13 µM
O=C(N[C@@H](CSCc1ccccc1)C(=O)O)/C(=C\c1ccc(Cl)cc1Cl)NC(=O)c1ccc(-c2ccccc2)cc1 [Compound 102] | 40 µM
O=C(NC(COCc1ccccc1)C(=O)O)/C(=C\c1ccc(Cl)cc1Cl)NC(=O)c1ccc(-c2ccccc2)cc1 (stereo not drawn) [Compound 103] | 18 µM
O=C(N[C@@H](CSCc1ccccc1)C(=O)O)/C(=C\c1ccc(Cl)c(Cl)c1)NC(=O)c1ccc(-c2ccccc2)cc1 [Compound 105] | 33 µM
O=C(NC(COCc1ccccc1)C(=O)O)/C(=C\c1ccc(Cl)c(Cl)c1)NC(=O)c1ccc(-c2ccccc2)cc1 (stereo not drawn) [Compound 106] | 20 µM
O=C(N[C@@H](CSCc1ccccc1)C(=O)O)/C(=C\c1ccc(-c2ccccc2)cc1)NC(=O)c1ccc(C(F)(F)F)cc1 [Compound 121] | 25 µM
O=C(NC(CCSCc1ccccc1)C(=O)O)/C(=C\c1ccc(-c2ccccc2)cc1)NC(=O)c1ccc(C(F)(F)F)cc1 (stereo not drawn) [Compound 122] | 25 µM
O=C(NC(COCc1ccccc1)C(=O)O)/C(=C\c1ccc(-c2ccccc2)cc1)NC(=O)c1ccc(C(F)(F)F)cc1 (stereo not drawn) [Compound 133] | 100 µM
O=C(N[C@@H](CSCc1ccccc1)C(=O)O)/C(=C\c1ccc(Cl)c(Cl)c1)NC(=O)c1ccc(C(F)(F)F)cc1 [Compound 140] | 48 µM
O=C(N[C@@H](CSCc1ccccc1)C(=O)O)/C(=C\c1ccc(Cl)cc1Cl)NC(=O)c1ccc(C(F)(F)F)cc1 [Compound 154] | 26.4 µM
